# Source: patent US8790665B2, “Serum protein-based detection of random sequence polymer compositions” (Ares Trading SA, priority 2009, dated 2014)
# Entries after “also recorded” stand apart in the source; their conditions may differ.
# What was measured:
# [1] = system: preclinical models of multiple sclerosis and Crohn's disease; test: Efficacy in preclinical models of multiple sclerosis and Crohn's disease; assay type: in vivo
# Excerpt: Without wishing to be bound by theory, mechanistically, binding of peptides within RSP compositions, (e.g. PI-2301 and Cop-1) to the serum proteins such as lipoproteins found associated with HDL and LDL might facilitate their capture by monocytes through receptors such as SR-BI or ABCA1. This binding may induce activation of monocytes and their differentiation into anti-inflammatory cells. PI-2301 and Cop-1 differ in binding to serum proteins (see FIG. 3). One reason for the difference is that Cop-1 and generic variants of glatiramer acetates are made by solution phase peptide synthesis, thus significant variations in composition may be observed from lot to lot. In contrast, PI-2301 is manufactured by solid phase synthesis. […] Thus, the great majority of the PI-2301 52-mer peptides in the mixture is likely to be functional. Cop-1 has a much broader molecular weight distribution, making it likely that some species of the mixture, such as small peptide species, in the mixture are ineffective.
# serum proteins = test: Identification of serum proteins bound to PI-2301 or Cop-1 (ELISA / CNBr-Sepharose capture, LC-MS/MS); assay type: binding, human; conditions: for serum proteins identified as bound: LC-MS/MS of tryptic digest, samples from Example 1 or 2; for binding to the serum proteins listed in Table C: normal human serum, direct ELISA
# Excerpt: As a non-limiting example of the above described identification, PI-2301 or Cop-1 may be used in a direct ELISA assay (see Materials and Methods) to identify serum proteins that bind to the RSP composition comprising YFAK or YEAK peptides. […] It has been observed that YEAK and YFAK peptides have different binding specificities; conversely, serum proteins can be said to bind YEAK and YFAK peptides with different specificities. Tables D and E list serum proteins which associate with HDL and LDL, respectively. Any serum proteins may bind to the RSP composition described herein by varying affinities and selectivities.
# An uncoated ELISA plate was blocked with PBS/0.1% Tween 20 for 2 hours at room temperature. PI-2301 or Cop-1 samples were serially diluted in PBS/5% normal human serum and added to the blocked and washed wells of the ELISA plate. The PI-2301 or Cop-1 in normal human serum was bound to the plate and unbound PI-2301 or Cop-1 was removed by washing the plate with PBS/0.05% Tween 20. Protein-A-purified anti-rabbit anti-PI-2301 or anti-rabbit anti-Cop-1, diluted to a suitable concentration based on the titer, was added for 1 hr at RT. After another wash step to remove the unbound rabbit anti-2301 or rabbit anti-Cop-1 antibodies, a secondary antibody, a goat anti-rabbit IgG-HRP (horse radish peroxidase conjugated antibody to rabbit IgG) was added to the well. After washing away any unbound secondary antibody, substrate for HRP was added to the wells and incubated for 15 minutes, which yielded a blue color that turns yellow when stop solution is added, the intensity of which color correlates with the amount of total PI-2301 or Cop-1 in the well. The optical density was measured at 450 nm with a ELISA plate reader and a titer curve was generated for each set of the serum samples spiked with PI-2301 and Cop-1, respectively. The limit of serum PI-2301 or serum Cop-1 detection is defined as the concentration which results in a A450 nm absorption which is 3 times above background. […]
# Immobilized RSP compositions were prepared by reacting the peptides with CNBr-activated Sepharose®, a pre-activated large pore chromatography medium used for immobilizing ligands (proteins, peptides, nucleic acids) containing primary amines using the cyanogens bromide method. […] After pH neutralization, the absorbance at 280 nm of the eluted fractions was read to identify fractions containing the ligands. […]
# Samples containing PI-2301 binding proteins or Cop-1 binding proteins were obtained by the method of Example 1 or Example 2. These samples were then enzymatically digested and analyzed by liquid chromatography tandem mass spectrometry (LC-MS/MS) for the purpose of identify the proteins which bind PI-2301 or Cop-1. […]
# [2] = Serum concentration / exposure of PI-2301 compared with Cop-1; conditions: in vivo
# Excerpt: Certain RSP compositions persist much longer in the serum and other biological fluids than other mixtures. For example, a preparation of YFAK, PI-2301, is found at 10 times the serum concentration in comparison to Cop-1 administered at the same initial weight-by-volume concentration (US App. Pub. 2009-0275496). In some instances, the administered peptides are sequestered by or bound to some in vivo component in situ, the result of which is longer half-life in that environment, with or without enhancement in bioavailability. In certain embodiment, the environment is blood plasma or lymph. In an alternative embodiment, the environment is spinal or cerebral fluid. In yet other embodiments, the environment is any tissue or organ locale to which peptides from RSP compositions are delivered.
# Without wishing to be bound by theory, mechanistically, binding of peptides within RSP compositions, (e.g. PI-2301 and Cop-1) to the serum proteins such as lipoproteins found associated with HDL and LDL might facilitate their capture by monocytes through receptors such as SR-BI or ABCA1. This binding may induce activation of monocytes and their differentiation into anti-inflammatory cells. PI-2301 and Cop-1 differ in binding to serum proteins (see FIG. 3). […]
# [3] = several hours after subcutaneous administration; various species, including man; cited from earlier work
# [4] = administered at the same initial weight-by-volume concentration; cited from earlier work
# [5] = YEAK in the serum of mice dosed IV or SC, detected by anti-YEAK ELISA; assay type: in vivo; conditions: FIG. 4
# [6] = system: Ig fraction of rabbit polyserum; test: ELISA with Ig fraction of rabbit polyserum; assay type: binding; conditions: FIG. 13
# HLA-DR2 (DRB1*1501) = HLA-DR2 (DRB1*1501) (Homo sapiens, UniProt P01903+P01911); conditions: peptide-specific manner; cited from earlier work
# CCL22 = test: Acute release of CCL22 (MDC) in serum or plasma after YEAK administration in mice; assay type: in vivo; conditions: FIG. 5
# HLA-DR4 (DRB1*0401) = HLA-DR4 (DRB1*0401) (Homo sapiens, UniProt P01903+P01911, A100K/A169T/F76Y/I96L/K127E/L162R/M171V/N62H/P40V/Q125Y/R42H/S133A/S149N/S66Y/V115G/V209L/W38E); conditions: peptide-specific manner; cited from earlier work
# HLA-DR1 (DRB1*0101) = HLA-DR1 (DRB1*0101) (Homo sapiens, UniProt P01903+P01911, A100R/D57E/F55L/F60I/F76Y/I96L/L162R/M171V/P40L/Q125E/R42F/V115G/Y59C); conditions: peptide-specific manner; cited from earlier work
# RAW264.7 = test: Bioassay: CCL22 release by monocyte cell line RAW264.7; assay type: cell-based; conditions: RAW264.7 cells exposed to copolymer; FIGS. 10, 15
# Method: Following synthesis of RSP compositions of different lengths, for example by solid phase synthesis or by solution phase synthesis, the individual lots or batches made by the same manufacturing process, and individual batches of mixtures manufactured by different processes are tested and compared for variation using bioassays such as the release of CCL22 by the monocyte cell line RAW264.7, by ex vivo proliferation assays, and by measuring the binding of serum proteins to peptides in the RSP composition, it is possible to determine subsets of peptides or even individual peptides that are present in any given process or lot. Processes and lots of RSP compositions will be compared to determine whether the same subsets of peptides and/or types of peptides are consistently represented across the different processes and lots.
binding to the serum proteins listed in Table C (serum proteins),serum exposure compared with Cop-1 [2],"maximum serum concentration ([5]; mice dosed IV with 4 mg/kg or SC with 21 mg/kg, route for this value not stated) [ng/mL]","time of maximum serum concentration ([5]; post dosing, mice IV 4 mg/kg or SC 21 mg/kg)",Substance,efficacy (potency) compared with Cop-1 [1],serum proteins identified as bound (serum proteins),detection in serum [3],serum concentration in comparison to Cop-1 [4] [times],recognition by Ig fraction of rabbit polyserum [6],binding affinity to purified HLA-DR2 (DRB1*1501) (HLA-DR2 (DRB1*1501)),relation between SC dose and observed maximum CCL22 plasma concentration (CCL22),binding affinity to purified HLA-DR4 (DRB1*0401) (HLA-DR4 (DRB1*0401)),binding affinity to purified HLA-DR1 (DRB1*0101) (HLA-DR1 (DRB1*0101)),CCL22 release (RAW264.7)
experimentally shown to bind,greater serum exposure,,,plovamer [PI-2301],more potent than Cop-1,several lipoproteins from the HDL and LDL complexes,can be detected,10,,,,,,
experimentally shown to bind,,1800,around 15 min,glatiramer acetate [Cop-1],,several lipoproteins from the HDL and LDL complexes; also recorded: complement proteins such as C3 and C4A,can be detected,,interacts strongly,binds with high affinity,linear correlation,binds with high affinity,binds with high affinity,released CCL22 in a concentration dependent manner
